Results: US20230112470A1, “USE OF EGFR/HER2 TYROSINE KINASE INHIBITORS AND/OR HER2/HER3 ANTIBODIES FOR THE TREATMENT OF CANCERS WITH NRG1 FUSIONS” (Board of Regents, The University of Texas System, priority 2020, published 2023)

tested on: MDA175-VII (NRG1-DOC4 fusion) cells; assay: Cell viability by Cell Titer Glo assay, 72 hours treatment; assay type: cell-based; conditions: 72 h, read-out: Average IC50
Description: FIG. 1B. Representative dose response curves of MDA175-VII (NRG1-DOC4 fusion) treated with the indicated inhibitors for 72 hours. Cell viability was determined by Cell Titer Glo Assay.
Cell viability was determined by the Cell Titer Glo assay.
Drug screening and IC50 determination. Drug screening is performed as previously described. Briefly, cells are plated in 384-well plates (Greiner Bio-One) at 2000-3000 cells per well in technical triplicate. Seven different concentrations of covalent EGFR/HER2 TKIs and/or HER2/HER3 targeting antibodies or DMSO vehicle are added to reach a final volume of 40 μL per well. After 72 hours, 11 μL of Cell Titer Glo (Promega) is added to each well. Plates are incubated for a minimum of 10 minutes, and bioluminescence is determined using a FLUOstar OPTIMA plate reader (BMG LABTECH). Raw bioluminescence values are normalized to DMSO control treated cells, and values are plotted in GraphPad Prism. […] Drug screens are performed in technical triplicate on each plate and either duplicate or triplicate biological replicates.

Compound	IC50 [nM]
CCOc1cc2ncc(C#N)c(Nc3ccc(OCc4ccccn4)c(Cl)c3)c2cc1NC(=O)/C=C/CN(C)C [Neratinib, neratinib]	0.747

same assay, conditions: MDA175-VII (NRG1-DOC4 fusion) cells, single HER2 inhibitor, 72 hours; read-out: Average IC50

Compound	IC50 [nM]
CN(C)C/C=C/C(=O)Nc1cc2c(Nc3ccc(F)c(Cl)c3)ncnc2cc1O[C@H]1CCOC1 [Afatinib, afatinib]	0.891
COc1cc2ncnc(Nc3ccc(F)c(Cl)c3)c2cc1NC(=O)/C=C/CN1CCCCC1 [Dacomitinib, dacomitinib]	1.18
C#Cc1cccc(Nc2ncnc3cc(OCCOC)c(OCCOC)cc23)c1 [Erlotinib, erlotinib]	1440
C=CC(=O)N1CCC[C@@H](n2nc(-c3ccc(Oc4ccccc4)cc3)c3c(N)ncnc32)C1 [Ibrutinib, ibrutinib]	86.9
CS(=O)(=O)CCNCc1ccc(-c2ccc3ncnc(Nc4ccc(OCc5cccc(F)c5)c(Cl)c4)c3c2)o1 [Lapatinib, lapatinib]	98.6
C=CC(=O)Nc1cc(Nc2nccc(-c3cn(C)c4ccccc34)n2)c(OC)cc1N(C)CCN(C)C [Osimertinib, osimertinib]	459
CCOc1cc2ncc(C#N)c(Nc3ccc(OCc4ccccn4)c(Cl)c3)c2cc1NC(=O)/C=C/[C@H]1CCCN1C [Pyrotinib, pyrotinib]	10.4
CNC(=O)CN1CCC(Oc2cc3c(Nc4cccc(Cl)c4F)ncnc3cc2OC)CC1 [Sapitinib, sapitinib]	316

same assay, conditions: MDA175-VII cells, anti-HER2 antibody alone (+DMSO), 72 hours; read-out: Average IC50

Compound	IC50 [nM]
Pertuzumab: recombinant, humanized monoclonal antibody that inhibits dimerization of HER2	51.5
T-DM1	653

same assay, conditions: MDA175-VII cells, single agent

Compound	inhibition of cell viability (in words)
Pertuzumab: recombinant, humanized monoclonal antibody that inhibits dimerization of HER2	potently inhibited cell viability
